In ChEMBL document CHEMBL6078649, “Discovery of Chalcone Derivatives as Bifunctional Molecules with Anti-SARS-CoV-2 and Anti-inflammatory Activities” (J Nat Prod, 2024):
Activity calls are given as the source filed them. The rule behind the calls is not given here.

What was measured:
[1] = molecular target: Procathepsin L (Homo sapiens) (UniProt P07711); assay: Inhibition of CTSL (unknown origin) using Z-Phe-ArgAMC as substrate at 10 uM preincubated for 30 mins followed by substrate addition by fluorescence based analysis
[2] = test system: RAW264.7; assay: Anti-inflammatory activity against mouse RAW264.7 cells assessed as inhibition of LPS-induced NO production at 1 uM preincubated for 1 hr followed by LPS treatment measured after 24 hrs relative to control; assay type: functional; settings: time 25 hrs
[3] = molecular target: T1, Replicase polyprotein 1ab (Severe acute respiratory syndrome coronavirus 2, UniProt P0DTD1); assay: Inhibition of SARS-CoV-2 3CLPro using DabcylKNSTLQSGLRK-Edans as substrate measured after 60 mins by FRET assay
[4] = Cytotoxicity against human Huh-7 cells harboring viral replicon/EGFP/Neo genes assessed as cell viability incubated for 24 hrs by Cell Titer Glo assay; assay type: toxicity, cell-based
[5] = Cytotoxicity against mouse RAW264.7 cells assessed as cell viability at 10 uM incubated for 24 hrs by CCK8 assay relative to control; assay type: toxicity, cell-based; settings: read-out: Activity
[6] = molecular target: T1, Replicase polyprotein 1ab
[7] = molecular target: T2, Chymotrypsin-C (Homo sapiens) (UniProt Q99895); assay: Inhibition of human CTRC using succinyl-Ala-Ala-Pro-Phe-p-nitroanilide as substrate at 10 uM preincubated for 30 mins followed by trypsin treatment for 1 hr and subsequent addition of substrate by absorbance based assay
T2 sequence (whole entry): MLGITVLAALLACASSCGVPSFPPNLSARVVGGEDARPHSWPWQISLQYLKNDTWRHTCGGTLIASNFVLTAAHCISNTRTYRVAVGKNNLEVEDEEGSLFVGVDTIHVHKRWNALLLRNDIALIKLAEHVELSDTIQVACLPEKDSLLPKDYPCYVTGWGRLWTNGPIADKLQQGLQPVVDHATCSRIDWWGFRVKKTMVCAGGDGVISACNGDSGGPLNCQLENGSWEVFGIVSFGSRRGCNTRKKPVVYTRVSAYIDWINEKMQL

[8] = Cytotoxicity against human Huh-7 cells harboring viral replicon/EGFP/Neo genes assessed as cell viability at 5 uM incubated for 24 hrs by Cell Titer Glo assay relative to control; assay type: toxicity, cell-based; settings: read-out: Activity
[9] = molecular target: Replicase polyprotein 1ab (Severe acute respiratory syndrome coronavirus 2) (UniProt P0DTD1); assay: Covalent binding affinity to SARS-CoV-2 3CLPro at 90 uM by MS analysis
[10] = molecular target: Cathepsin B (Homo sapiens) (UniProt P07858); assay: Inhibition of CTSB (unknown origin) using Z-Phe-ArgAMC as substrate at 10 uM preincubated for 30 mins followed by substrate addition by fluorescence based analysis
[11] = molecular target: Replicase polyprotein 1ab (Severe acute respiratory syndrome coronavirus 2) (UniProt P0DTD1); assay: Inhibition of SARS-CoV-2 3CLPro using DabcylKNSTLQSGLRK-Edans as substrate at 50 uM preincubated for 30 mins followed by substrate addition measured after 20 mins by FRET assay relative to control; settings: time 50.0 min
[12] = Cytotoxicity against mouse RAW264.7 cells assessed as cell viability at 50 uM incubated for 24 hrs by CCK8 assay relative to control; assay type: toxicity, cell-based; settings: read-out: Activity
[13] = molecular target: Transmembrane protease serine 2 (Homo sapiens) (UniProt O15393); assay: Inhibition of TMPRSS2 (unknown origin) using Boc-GIn-Ala-Arg-AMC as substrate at 10 uM preincubated for 60 mins followed by substrate addition by fluorescence based assay
[14] = Cytotoxicity against mouse RAW264.7 cells assessed as cell viability at 1 uM incubated for 24 hrs by CCK8 assay relative to control; assay type: toxicity, cell-based; settings: read-out: Activity
[15] = molecular target: T1, Replicase polyprotein 1ab; assay: Inhibition of SARS-CoV-2 3CLPro using DabcylKNSTLQSGLRK-Edans as substrate measured after 3 mins by FRET assay
[16] = molecular target: Replicase polyprotein 1ab (Severe acute respiratory syndrome coronavirus 2) (UniProt P0DTD1); assay: Inhibition of SARS-CoV-2 3CLPro using DabcylKNSTLQSGLRK-Edans as substrate at 5 uM preincubated for 30 mins followed by substrate addition measured after 20 mins by FRET assay relative to control; settings: time 50.0 min
[17] = Cytotoxicity against human Huh-7 cells harboring viral replicon/EGFP/Neo genes assessed as cell viability at 50 uM incubated for 24 hrs by Cell Titer Glo assay relative to control; assay type: toxicity, cell-based; settings: read-out: Activity
[18] = test system: RAW264.7; assay: Anti-inflammatory activity against mouse RAW264.7 cells assessed as inhibition of LPS-induced NO production at 10 uM preincubated for 1 hr followed by LPS treatment measured after 24 hrs relative to control; assay type: functional; settings: time 25 hrs
[19] = test system: SJSA-1; assay: Inhibition of cell proliferation of human SJSA-1 cells at 10 uM; assay type: functional, cell-based
[20] = test system: KHOS/NP; assay: Inhibition of cell proliferation of human KHOS/NP cells at 10 uM; assay type: functional, cell-based
[21] = test system: GES1; assay: Inhibition of cell proliferation of human GES1 cells at 10 uM; assay type: functional, cell-based
[22] = test system: HOS-TE85; assay: Inhibition of cell proliferation of human MNNG/HOS cells at 10 uM; assay type: functional, cell-based
[23] = test system: 143B; assay: Inhibition of cell proliferation of human 143B cells at 10 uM; assay type: functional, cell-based
[24] = test system: MGC-803; assay: Inhibition of cell proliferation of human MGC-803 cells at 10 uM; assay type: functional, cell-based
[25] = molecular target: T1, Replicase polyprotein 1ab; assay: (§1) Mixed inhibition of SARS-CoV-2 3CLPro using DabcylKNSTLQSGLRK-Edans as substrate by FRET assay
[26] = molecular target: Replicase polyprotein 1ab (Severe acute respiratory syndrome coronavirus 2) (UniProt P0DTD1); assay: as §1

Chain of Transmembrane protease serine 2 (Homo sapiens) (O15393 1-255 limits assumed): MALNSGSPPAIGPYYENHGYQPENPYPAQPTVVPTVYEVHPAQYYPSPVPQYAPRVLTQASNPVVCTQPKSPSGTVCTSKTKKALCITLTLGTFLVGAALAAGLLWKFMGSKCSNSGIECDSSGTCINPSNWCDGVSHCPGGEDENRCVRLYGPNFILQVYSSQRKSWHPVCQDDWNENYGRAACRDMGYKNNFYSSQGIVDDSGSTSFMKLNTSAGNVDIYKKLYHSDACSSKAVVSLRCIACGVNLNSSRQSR
Chain of Transmembrane protease serine 2 (Homo sapiens) (O15393 256-492 limits assumed): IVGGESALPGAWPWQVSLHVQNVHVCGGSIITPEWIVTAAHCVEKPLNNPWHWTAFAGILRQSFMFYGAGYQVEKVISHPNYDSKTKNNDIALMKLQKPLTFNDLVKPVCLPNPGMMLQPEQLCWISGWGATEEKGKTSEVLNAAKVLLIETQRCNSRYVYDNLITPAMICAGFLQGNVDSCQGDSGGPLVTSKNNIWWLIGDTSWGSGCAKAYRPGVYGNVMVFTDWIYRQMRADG
Chain of Procathepsin L (Homo sapiens) (P07711 114-333 limits assumed): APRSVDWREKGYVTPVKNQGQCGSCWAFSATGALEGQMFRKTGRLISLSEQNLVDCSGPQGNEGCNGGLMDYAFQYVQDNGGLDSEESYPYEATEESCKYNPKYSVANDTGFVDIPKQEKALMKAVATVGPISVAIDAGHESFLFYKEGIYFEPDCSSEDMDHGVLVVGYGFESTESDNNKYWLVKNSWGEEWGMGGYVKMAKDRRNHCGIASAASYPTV

SMILES | inhibition [1] | inhibition at 1 µM [2] [%] | IC50 [3] [nM] | CC50 at 24 h [4] [nM] | viability at 24 h, 10 µM [5] [%] | IC50 [6] [nM] | inhibition [7] | viability at 24 h, 5 µM [8] [%] | Activity [9] | inhibition [10] | inhibition [11] [%] | viability at 24 h, 50 µM [12] [%] | inhibition [13] | viability at 24 h, 1 µM [14] [%] | IC50 [15] [nM] | inhibition [16] [%] | viability at 24 h, 50 µM [17] [%] | inhibition at 10 µM [18] [%] | also measured
O=C(/C=C/c1cc(O)c(O)c(O)c1)c1ccc(F)cc1 | inactive | 4.2 | 93.4 | > 50000 | 109 | 261 | Active | 95.2 | Active | inactive | 0.5 | 100 | inactive | 116 | 461 | 2.5 | 63.4 | 68.6 | Ki [6]: 800 nM
O=C(/C=C/c1c(Cl)c(O)c(O)c(O)c1Cl)c1ccc(F)cc1 | inactive | 29.1 | 110 | 41200 | 48.6 | 83.2 | Active | 104 | inactive | inactive | -0.1 | 114 | Active | 93.7 | 211 | 0.8 | 50 | 81.1 | inhibition [19]: inactive; inhibition [20]: inactive; inhibition [21]: inactive; inhibition [22]: inactive; inhibition [23]: inactive; inhibition [24]: inactive; Ki [25]: 200 nM; inhibition [26]: Dose-dependent-effect; The Result Suggests That Compound May Bind To Both Enzymatic Active Site And Allosteric Sites
